From patent publication US5225436A, “Aryl substituted naphthalene derivatives” (Schering Corporation, priority 1991, dated 1993)
Counter-ions that a name gives are not always drawn. Like-named read-outs stand apart in the source and are kept apart here.

Legend:
[1] = tested on: anaphylactic bronchospasm (antigen-induced SRS-A mediated bronchoconstriction); assay: Inhibition of anaphylactic bronchospasm in sensitized guinea pigs; assay type: in vivo, guinea pig; conditions: Cavia porcellus, iv, 0.25 h, Dose 10 mpk, read-out: % Inhibition of anaphylactic bronchospasm
Description: The anti-allergy method of this invention is identified by tests which measure a compound's inhibition of anaphylactic bronchospams-in sensitized guinea pigs having antigen-induced SRS-A mediated bronchoconstriction. Allergic bronchospams was measured in actively sensitized guinea pigs by a modification of the procedure of Konzett and Rossler, Arch. Exptl. Pathol. Pharmakol., 194, pp. 71-74 (1940). Male Hartley guinea pigs were sensitized with 5 mg ovalbumin injected ip and 5 mg injected sc in 1 ml saline on day 1 and 5 mg ovalbumin injected ip on day 4. The sensitized animals were used 3-4 weeks later. To measure anaphylactic bronchospasm, sensitized guinea pigs were fasted overnight and the following morning were anesthetized with 0.9 ml/kp ip dialurethane. The trachea and jugular vein were cannulated and the animals were ventilated by a Harvard rodent respirator. A side arm to the tracheal cannula was connected to a Harvard pressure transducer to obtain a continuous measure of intratracheal pressure. An increase in intratracheal pressure was taken as a measure of bronchoconstriction. Each guinea pig was injected iv with 1 mg/kg propranolol, 5 mg/kg indomethacin and 2 mg/kg mepyramine given together in a volume of […]. Fifteen minutes later, the animals were challenged with antigen (0.5 percent ovalbumin) delivered as an aerosol generated from a DeVilbiss Model 65 ultrasonic nebulizer and delivered through the tracheal cannula for 30 seconds. Bronchoconstriction was measured as the peak increase in intratracheal pressure occurring within 15 minutes after antigen challenge.

5-lipoxygenase = molecular target: T1, 5-lipoxygenase (Mus musculus, UniProt P48999); assay: 5-Lipoxygenase assay (murine mast cell clone MC-9); assay type: cell-based; conditions: MC9, 5 min, MC-9 cell
T1 construct: The IL-3-dependent murine mast cell clone, MC-9, was used to test the effects; endogenous in cells; host or cells: MC-9 (IL-3-dependent murine mast cell clone)
T1 sequence (P48999 1-674): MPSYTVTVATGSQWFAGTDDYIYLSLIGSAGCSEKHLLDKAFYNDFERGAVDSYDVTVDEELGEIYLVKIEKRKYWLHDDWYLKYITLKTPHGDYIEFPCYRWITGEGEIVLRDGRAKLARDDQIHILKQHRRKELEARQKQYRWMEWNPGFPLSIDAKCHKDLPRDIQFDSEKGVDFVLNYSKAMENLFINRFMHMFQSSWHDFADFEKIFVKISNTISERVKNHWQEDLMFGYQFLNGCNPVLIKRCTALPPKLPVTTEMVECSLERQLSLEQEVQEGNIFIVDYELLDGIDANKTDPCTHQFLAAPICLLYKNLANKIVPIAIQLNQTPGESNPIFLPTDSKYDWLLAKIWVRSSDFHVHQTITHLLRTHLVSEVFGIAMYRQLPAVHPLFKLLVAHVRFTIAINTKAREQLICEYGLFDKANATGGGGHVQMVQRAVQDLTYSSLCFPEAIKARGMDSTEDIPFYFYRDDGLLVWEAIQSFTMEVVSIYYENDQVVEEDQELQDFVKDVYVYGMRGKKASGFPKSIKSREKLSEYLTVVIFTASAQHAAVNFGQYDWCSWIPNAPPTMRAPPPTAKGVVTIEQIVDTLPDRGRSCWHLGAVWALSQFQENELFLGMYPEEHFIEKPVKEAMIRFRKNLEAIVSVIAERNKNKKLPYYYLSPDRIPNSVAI
Description: The IL-3-dependent murine mast cell clone, MC-9, was used to test the effects of representative compounds of the invention on lipoxygenase activity. The MC-9 cell line was grown in suspension culture (0.4 to 1.2×10^6 cells/ml) in RPMI 1640 medium (Gibco) with 10% fetal bovine serum (Hyclone) and 2-5% conconavalin-A conditioned supernatant (Musch et. al., (1985) Prostagandins 29, 405-4307. Cells were harvested, washed twice by centrifugation, and resuspended in a Ca^++ -free HEPES buffer (25 mM HEPES, 125 mM NaCl, 2.5 mM KCl 0.7 mM MgCl2, 0.5 mM EGTA and 10 mM glucose at pH 7.4).
MC-9 cells (0.39 ml at 7.5×10^6 cells/ml) were preincubated with dimethylsulfoxide (DMSO) vehicle with or without test compound (1 ul) for 4 minutes then incubated for 5 minutes with [^14 C] arachidonic acid (Amersham, 59 Ci/mole) at a 9 uM final concentration, and A23187 (Calbiochem) at a 1 uM final concentration was added in 10 ul of water:ethanol (9:1). The reaction was stopped by addition of methanol (0.4 ml), and cellular debris was removed by centrifugation. Aliquots (250 ul) of the incubations were run on a Waters two pump HPLC system fitted with a Waters C18, 10 u 8×100 mm u-Bondapak radial compression column and C18 "Guard Pak". The column was initially eluted at 3 ml/min with water:methanol:acetic acid (67:33:0.08) containing 1 mM EDTA adjusted to pH 6.0 with ammonium hydroxide (Pump A). At 4 minutes, a linear gradient to reach 100% methanol (Pump B) at 9 minutes was established. Between 13 and 14 minutes, methanol was exchanged for the initial eluting solvent and by 19 minutes the column had been reequilibrated for the next sample. The effluent was analyzed by a continuous flow radioactivity monitor (model ROMONA-D) interfaced with a Hewlett Packard Lab Automation System for quantitation of radioactive products. These were predominantly leukotriene C4 (LTC4) which eluted at 6 minutes, and 5-hydroxyeicosatetraenoic acid (5-HETE) which eluted at 11 minutes (Musch et. al., supra).

[2] = tested on: SRS-A / leukotriene release from antigen-challenged, sensitized guinea pig lung; assay: Inhibition of SRS-A (leukotriene) release from antigen-challenged, sensitized guinea pig lung; assay type: cell-based; conditions: Cavia porcellus
Outline: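 Chopped sensitized guinea pig lung fragments (~400 mg) preincubated with or without compound 12 min at 37° C in Tyrode's with 10 mM cysteine, then challenged with 20 μg/ml ovalbumin (final) for 15 min. Ethanol-extracted supernatant leukotrienes measured by [3H]LTC4 RIA (55% LTD4 cross-reactivity); % inhibition versus the same lung without compound.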

[3] = tested on: arachidonic acid induced mouse ear inflammation; assay: Arachidonic acid mouse ear test; assay type: in vivo, mouse (Charles River, female, CD, (SD) BR); conditions: 1 mg/ear, topical, 30 minutes prior to AA challenge
Description: Charles River, female, CD, (SD) BR mice, 6 weeks old, are caged 8/group and allowed to acclimate 1-3 weeks prior to use.
Arachidonic acid (AA) is dissolved in reagent grade acetone (2 mg/.01 ml) and stored at -20° C. for a maximum of 1 week prior to use. Inflammatory reactions are induced by applying […] of AA to both surfaces of one ear ([…] total).
Test drugs are dissolved in either reagent grade acetone or aqueous ethanol (only if insoluble in acetone) at the same doses selected by Opas et al., Fed. Proc. 43, Abstract 2983, p. 1927 (1984) and Young et al., J. Invest. Dermatol. 82, pp. 367-371 (1984). These doses are employed to ensure maximum responses and to overcome any difference in topical absorption which could occur with any drug applied in an aqueous ethanol vehicle. The test drug is applied 30 minutes prior to challenge with AA.
The severity of the inflammation is measured as a function of increased ear weight. A 6 mm punch biopsy is removed 1 hour after AA challenge and weighed to the nearest 0.1 mg. Mean ± standard error and all possible comparisons are made via Duncan's Multiple Range Statistic.

Row | Structure (SMILES) | inhibition in vivo at 10 mg/kg [1] | inhibition at 5 µM (5-lipoxygenase; read-out: % Inhibition 5-HETE) | inhibition at 5 µM (5-lipoxygenase; read-out: % Inhibition LTC4) | inhibition at 50 µM (5-lipoxygenase; read-out: % Inhibition 5-HETE) | inhibition at 50 µM (5-lipoxygenase; read-out: % Inhibition LTC4) | inhibition at 50 µM [2] | inhibition at 1 µM (5-lipoxygenase; read-out: % Inhibition 5-HETE) | inhibition at 1 µM (5-lipoxygenase; read-out: % Inhibition LTC4) | inhibition at 10 µM ([2]; Dose 10 μm) | inhibition (increased ear weight) [3] | inhibition (increased ear weight) ([3]; listed as 3-(3,4-dihydroxyphenyl)-6,8-dihydroxy-4,4-dimethyl-1(4H)-naphthalenone) | inhibition at 2 µM (5-lipoxygenase; read-out: % Inhibition 5-HETE) | inhibition at 2 µM (5-lipoxygenase; read-out: % Inhibition LTC4)
1 | COc1cc(OC)c2c(c1)C(C)(C)C(c1ccc(OC)c(OC)c1)=CC2=O | 36% | 9% | 17% | 95% | 100% | 55% |  |  |  |  |  |  | 
2 | COc1cc(OC)c2c(c1)C(C)(C)C(c1ccc(OC)c(OC)c1)CC2=NO (centres unmarked) | 50% | 100% | 65% |  |  | 75% | 28% | 26% | 35% |  |  |  | 
3 | CC(=O)Oc1cc(OC(C)=O)c2c(c1)C(C)(C)C(c1ccc(OC(C)=O)c(OC(C)=O)c1)=CC2=O [3-(3,4-diacetyloxyphenyl)-6,8-diacetyloxy-4,4-dimethyl-1(4H)-naphthalenone] | 7% | 53% | 43% |  |  | 48% |  |  |  |  |  |  | 
4 | CC1(C)C(c2ccc(O)c(O)c2)=C(O)C(=O)c2c(O)cc(O)cc21 [3-(3,4-dihydroxyphenyl)-2,6,8-trihydroxy-4,4-dimethyl-1(4H)-naphthalenone] |  | 43% |  | 95% |  | 81% |  |  |  | 68% |  |  | 
5 | CC1(C)C(c2ccc(O)c(O)c2)=CC(=O)c2c(O)cc(O)cc21 [3-(3,4-dihydroxyphenyl)-6,8-dihydroxy-4,4-dimethyl-1(4H)-naphthalenone] | 17% | 76% |  |  |  | 77% |  |  |  |  | 60% | 52% | 33%
6 | COc1cc(O)c2c(c1)C(C)(C)C(c1ccc(O)c(O)c1)=CC2=O [3-(3,4-dihydroxyphenyl)-8-hydroxy-6-methoxy-4,4-dimethyl-1(4H)-naphthalenone] |  | 60% |  |  |  | 43% |  |  |  | 65% |  |  | 
7 | COc1cc(OC)c2c(c1)C(C)(C)C(c1ccc(OC)c(OC)c1)CC2=O (centres unmarked) [3-(3,4-dimethoxyphenyl)-6,8-dimethoxy-4,4-dimethyl-3 4-dihydro-1(2H)-naphthalenone] | 0% | 29% | 36% | 100% | 99% | 62% |  |  |  | 50% |  |  | 
8 | CC1(C)C(c2ccc(O)c(O)c2)=CC(=O)c2c(O)cc(O)cc21 [trisodium salt of 3(3 4-dihydroxy-phenyl)-6,8-dihydroxy-4,4-dimethyl-1(4H)-naphthalenone] |  |  |  |  |  |  |  |  |  | 90% |  |  | 
